Values joined by “and” are separate entries in the source; they are usually repeats but may differ in a detail not shown here. Identical values can stand only once. “Also recorded” adds a separate entry of the source. Like-named read-outs stand apart in the source and are kept apart here.
Columns and labels:
[1] = test system: HCV replicon; test: HCV replicon-based viral bioassay with supernatants of compound-treated PBMC; format: cell-based, hepatitis C virus
Protocol: A quantitative assay was developed which is based on measuring the activity of the luciferase reporter gene that was integrated into an HCV replicon. By using this system, interferons from TLR7 agonist-treated PBMCs were measured and their inhibitory activity was assessed using the luciferase reporter replicon.
Human PBMCs isolated from a healthy donor were placed in replicate cell culture wells (5×10^6 cells per well). The PBMCs are incubated in the absence of test compounds at 37° C. in a humidified atmosphere containing 5% CO2 for 24 hours to allow stabilization to the culture conditions, and then the TLR7 ligand or a drug free control is added to replicate wells containing PBMCs from the same donor. The concentrations of TLR7 ligand may be varied to suit the particular experiment, and the PBMC cultures are then incubated at 37° C. in a humidified atmosphere containing 5% CO2 for eight hours. Samples of cell culture supernatant are taken at the eight hour time point (or twenty four hour time point in case of Loxoribine and its prodrugs) from TLR7 ligand treated and control wells and are assayed for interferon-alpha production by ELISA. Supernatants from compound-treated cells and a no-drug control were diluted at 1:10, 1:100, and 1:1000 in RPMI media and applied to a 96-well plate of Huh7 hepatocyte cells containing the luciferase reporter replicon. Cells were incubated for 48 hours at 37° C. in a tissue culture incubator.
After the incubation period, the 96-well plates are washed 2× with PBS and are lysed with passive lysis buffer (Promega). Plates are shaken at room temperature for 20 minutes and standard luciferase assay reagent (Promega) is added to each well by injection and the plate is read on an Lmax luminometer (Molecular Devices).
A supernatant collected from PBMC cells non-exposed to the compound and diluted as specified in the first column was used as a control (“Blank supernatant”). The PBMC cells were isolated from a single blood donor as specified.

[2] = test system: interferon alpha; test: Interferon alpha plasma concentrations in mice; format: in vivo, mouse; details: for Mu-IFN-α plasma concentration, individual value / Mu-IFN-α plasma concentration, mean: mice
Source text: Not only can one measure the plasma concentrations of isatoribine arising from oral administration of the said prodrug(s) but also the extensive immunological research conducted in the mouse has provided reagents suitable for measuring the levels of interferon alpha, a cytokine of interest reflecting one of the desired biologic activities of isatoribine.

[3] = Pharmacokinetics of isatoribine in beagle dogs after oral dosing; details: both, dog, in vivo, 50 mg/kg
Protocol: The effect of a prodrug (val-isatoribine, 24) on the systemic exposure to isatoribine (21) after oral administration to beagle dogs was investigated. Isatoribine was prepared in sodium bicarbonate solution. Val-isatoribine and isatoribine were prepared as the following formulations, which were chosen to ensure solubility: Formulation 1: […] Formulation 2: […] Four male and four female adult beagle dogs weighing between 15 to 27 kg and approximately 1-2 years old were used at the beginning of the study. The animals were divided into 2 groups of 2 males and 2 females each. The test material was administered by gavage on Days 1 and 8, allowing a 7 day washout period between administrations. […] The plasma was frozen at −70° C. until analysis. The plasma was analyzed for isatoribine by an HPLC-MS/MS assay.

[4] = cited from earlier work
[5] = one vehicle dose, one oral 50 mg/kg dose 4 hours later, time 4.03 h (second dose)
[6] = one vehicle dose, one oral 50 mg/kg dose 4 hours later, time 4.08 h (second dose)
[7] = one vehicle dose, one oral 50 mg/kg dose 4 hours later, time 4.25 h (second dose)
[8] = one vehicle dose, one oral 50 mg/kg dose 4 hours later, time 8.00 h (second dose)
[9] = two oral 50 mg/kg doses 4 hours apart, time 0.08 h (first dose)
[10] = two oral 50 mg/kg doses 4 hours apart, time 0.50 h (first dose)
[11] = two oral 50 mg/kg doses 4 hours apart, time 1.00 h (first dose)
[12] = two oral 50 mg/kg doses 4 hours apart, time 3.00 h (first dose)
[13] = two oral 50 mg/kg doses 4 hours apart, time 4.00 h (first dose)
[14] = two oral 50 mg/kg doses 4 hours apart, time 4.03 h (second dose)
[15] = two oral 50 mg/kg doses 4 hours apart, time 4.08 h (second dose)
[16] = two oral 50 mg/kg doses 4 hours apart, time 4.25 h (second dose)
[17] = two oral 50 mg/kg doses 4 hours apart, time 5.00 h (second dose)
[18] = two oral 50 mg/kg doses 4 hours apart, time 5.50 h (second dose)
[19] = two oral 50 mg/kg doses 4 hours apart, time 7.00 h (second dose)
[20] = oral dosing, data of Tables 15, 16 and 17

## Nc1nc2c(sc(=O)n2[C@@H]2O[C@H](CO)[C@@H](O)[C@H]2O)c(=O)[nH]1 [Compound 21, 7-thia-8-oxoguanosine]
[1]; Table 3 No. 1, PBMC exposed 8 hours to 100 μM, donor FL72035, supernatant dilution 1:100
  HCV replicon inhibition: 100%
[1]; Table 3 No. 1, PBMC exposed 8 hours to 100 μM, donor FL72035, supernatant dilution 1:1000
  HCV replicon inhibition: 94%
[1]; Table 3 No. 2, PBMC exposed 8 hours to 100 μM, donor FL75287, supernatant dilution 1:10
  HCV replicon inhibition: 100%
[1]; Table 3 No. 2, PBMC exposed 8 hours to 100 μM, donor FL75287, supernatant dilution 1:100
  HCV replicon inhibition: 87%
[1]; Table 3 No. 2, PBMC exposed 8 hours to 100 μM, donor FL75287, supernatant dilution 1:1000
  HCV replicon inhibition: 6%
[1]; Table 3 No. 3, PBMC exposed 24 hours to 100 μM, donor FL75864, supernatant dilution 1:10
  HCV replicon inhibition: 100%
[1]; Table 3 No. 3, PBMC exposed 24 hours to 100 μM, donor FL75864, supernatant dilution 1:100
  HCV replicon inhibition: 99%
[1]; Table 3 No. 3, PBMC exposed 24 hours to 100 μM, donor FL75864, supernatant dilution 1:1000
  HCV replicon inhibition: 64%
[2]; [5]
  Mu-IFN-α plasma concentration, individual value: BQL^25 pg/mL
  Mu-IFN-α plasma concentration, mean: 0.00 pg/mL
[2]; [6]
  Mu-IFN-α plasma concentration, individual value: BQL^25 pg/mL
  Mu-IFN-α plasma concentration, mean: 0.00 pg/mL
[2]; [7]
  Mu-IFN-α plasma concentration, individual value: BQL^25 pg/mL
  Mu-IFN-α plasma concentration, mean: 0.00 pg/mL
[2]; one vehicle dose, one oral 50 mg/kg dose 4 hours later, time 4.50 h (second dose)
  Mu-IFN-α plasma concentration, mean: 44.4 pg/mL
[2]; one vehicle dose, one oral 50 mg/kg dose 4 hours later, time 4.50 h (second dose), listed as Isatoribine, 50 mg/kg
  Mu-IFN-α plasma concentration, individual value: BQL^100 pg/mL and BQL^25 pg/mL and 133.2 pg/mL
[2]; one vehicle dose, one oral 50 mg/kg dose 4 hours later, time 5.00 h (second dose)
  Mu-IFN-α plasma concentration, mean: 37.5 pg/mL
[2]; one vehicle dose, one oral 50 mg/kg dose 4 hours later, time 5.00 h (second dose), listed as Isatoribine, 50 mg/kg
  Mu-IFN-α plasma concentration, individual value: 74.9 pg/mL and BQL^50 pg/mL
[2]; one vehicle dose, one oral 50 mg/kg dose 4 hours later, time 5.50 h (second dose)
  Mu-IFN-α plasma concentration, mean: 0.00 pg/mL
[2]; one vehicle dose, one oral 50 mg/kg dose 4 hours later, time 5.50 h (second dose), listed as Isatoribine, 50 mg/kg
  Mu-IFN-α plasma concentration, individual value: BQL^250 pg/mL; also recorded: BQL^75 pg/mL; also recorded: BQL^25 pg/mL
[2]; one vehicle dose, one oral 50 mg/kg dose 4 hours later, time 6.00 h (second dose)
  Mu-IFN-α plasma concentration, mean: 0.00 pg/mL
[2]; one vehicle dose, one oral 50 mg/kg dose 4 hours later, time 6.00 h (second dose), listed as Isatoribine, 50 mg/kg
  Mu-IFN-α plasma concentration, individual value: BQL^25 pg/mL; also recorded: BQL^75 pg/mL
[2]; one vehicle dose, one oral 50 mg/kg dose 4 hours later, time 7.00 h (second dose)
  Mu-IFN-α plasma concentration, mean: 0.00 pg/mL
[2]; one vehicle dose, one oral 50 mg/kg dose 4 hours later, time 7.00 h (second dose), listed as Isatoribine, 50 mg/kg
  Mu-IFN-α plasma concentration, individual value: BQL^50 pg/mL; also recorded: BQL^25 pg/mL
[2]; [8]
  Mu-IFN-α plasma concentration, individual value: BQL^25 pg/mL
  Mu-IFN-α plasma concentration, mean: 0.00 pg/mL
[2]; two oral 50 mg/kg doses 4 hours apart, time 0.00 h (first dose)
  Mu-IFN-α plasma concentration, mean: 0.00 pg/mL
[2]; two oral 50 mg/kg doses 4 hours apart, time 0.00 h (first dose), listed as Isatoribine, 50 mg/kg
  Mu-IFN-α plasma concentration, individual value: BQL^50 pg/mL; also recorded: BQL^125 pg/mL
[2]; two oral 50 mg/kg doses 4 hours apart, time 0.03 h (first dose)
  Mu-IFN-α plasma concentration, mean: 0.00 pg/mL
[2]; two oral 50 mg/kg doses 4 hours apart, time 0.03 h (first dose), listed as Isatoribine, 50 mg/kg
  Mu-IFN-α plasma concentration, individual value: BQL^25 pg/mL; also recorded: BQL^250 pg/mL
[2]; [9]
  Mu-IFN-α plasma concentration, individual value: BQL^25 pg/mL
  Mu-IFN-α plasma concentration, mean: 0.00 pg/mL
[2]; two oral 50 mg/kg doses 4 hours apart, time 0.25 h (first dose)
  Mu-IFN-α plasma concentration, mean: 0.00 pg/mL
[2]; two oral 50 mg/kg doses 4 hours apart, time 0.25 h (first dose), listed as Isatoribine, 50 mg/kg
  Mu-IFN-α plasma concentration, individual value: BQL^50 pg/mL; also recorded: BQL^25 pg/mL
[2]; [10]
  Mu-IFN-α plasma concentration, individual value: BQL^25 pg/mL
  Mu-IFN-α plasma concentration, mean: 0.00 pg/mL
[2]; [11]
  Mu-IFN-α plasma concentration, individual value: BQL^25 pg/mL
  Mu-IFN-α plasma concentration, mean: 0.00 pg/mL
[2]; two oral 50 mg/kg doses 4 hours apart, time 1.50 h (first dose)
  Mu-IFN-α plasma concentration, mean: 0.00 pg/mL
[2]; two oral 50 mg/kg doses 4 hours apart, time 1.50 h (first dose), listed as Isatoribine, 50 mg/kg
  Mu-IFN-α plasma concentration, individual value: BQL^100 pg/mL; also recorded: BQL^25 pg/mL
[2]; two oral 50 mg/kg doses 4 hours apart, time 2.00 h (first dose)
  Mu-IFN-α plasma concentration, mean: 0.00 pg/mL
[2]; two oral 50 mg/kg doses 4 hours apart, time 2.00 h (first dose), listed as Isatoribine, 50 mg/kg
  Mu-IFN-α plasma concentration, individual value: BQL^25 pg/mL; also recorded: BQL^75 pg/mL
[2]; [12]
  Mu-IFN-α plasma concentration, individual value: BQL^25 pg/mL
  Mu-IFN-α plasma concentration, mean: 0.00 pg/mL
[2]; [13]
  Mu-IFN-α plasma concentration, individual value: BQL^25 pg/mL
  Mu-IFN-α plasma concentration, mean: 0.00 pg/mL
[2]; [14]
  Mu-IFN-α plasma concentration, individual value: BQL^25 pg/mL
  Mu-IFN-α plasma concentration, mean: 0.00 pg/mL
[2]; [15]
  Mu-IFN-α plasma concentration, individual value: BQL^25 pg/mL
  Mu-IFN-α plasma concentration, mean: 0.00 pg/mL
[2]; [16]
  Mu-IFN-α plasma concentration, individual value: BQL^25 pg/mL
  Mu-IFN-α plasma concentration, mean: 0.00 pg/mL
[2]; two oral 50 mg/kg doses 4 hours apart, time 4.50 h (second dose)
  Mu-IFN-α plasma concentration, mean: 0.00 pg/mL
[2]; two oral 50 mg/kg doses 4 hours apart, time 4.50 h (second dose), listed as Isatoribine, 50 mg/kg
  Mu-IFN-α plasma concentration, individual value: BQL^50 pg/mL; also recorded: BQL^37.5 pg/mL
[2]; [17]
  Mu-IFN-α plasma concentration, individual value: BQL^50 pg/mL
  Mu-IFN-α plasma concentration, mean: 0.00 pg/mL
[2]; [18]
  Mu-IFN-α plasma concentration, individual value: BQL^37.5 pg/mL
  Mu-IFN-α plasma concentration, mean: 0.00 pg/mL
[2]; two oral 50 mg/kg doses 4 hours apart, time 6.00 h (second dose)
  Mu-IFN-α plasma concentration, mean: 0.00 pg/mL
[2]; two oral 50 mg/kg doses 4 hours apart, time 6.00 h (second dose), listed as Isatoribine, 50 mg/kg
  Mu-IFN-α plasma concentration, individual value: BQL^50 pg/mL; also recorded: BQL^41.3 pg/mL; also recorded: BQL^37.5 pg/mL
[2]; [19]
  Mu-IFN-α plasma concentration, individual value: BQL^50 pg/mL
  Mu-IFN-α plasma concentration, mean: 0.00 pg/mL
[2]; two oral 50 mg/kg doses 4 hours apart, time 8.00 h (second dose)
  Mu-IFN-α plasma concentration, mean: 0.00 pg/mL
[2]; two oral 50 mg/kg doses 4 hours apart, time 8.00 h (second dose), listed as Isatoribine, 50 mg/kg
  Mu-IFN-α plasma concentration, individual value: BQL^50 pg/mL; also recorded: BQL^25 pg/mL
[2]; [20]
  mice with detectable interferon in their plasma: 4 of the 114
  proportion of mice exhibiting an interferon response: 4%
[3]
  AUC Ratio (to isatoribine in bicarbonate solution): 1.00
  Cmax Ratio (to isatoribine in bicarbonate solution): 1.00
[4]; dog, in vivo, po, 2.5 mg/kg
  Emesis or loose stool: Neg.
  GI lesions or irritation: Neg.
[4]; dog, in vivo, po, 5 mg/kg
  Emesis or loose stool: +
  GI lesions or irritation: Neg.
[4]; dog, in vivo, po, 10 mg/kg
  Emesis or loose stool: ++
  GI lesions or irritation: ++
  multiple, scattered red lesions on the intestinal mucosa (gross histopathologic evaluation of the GI tract): four of eight dogs
[4]; dogs, orally administered, established by the GI effects
  NOAEL: 5 mg/kg
